Measured values published in patent publication EP4238971A1, “SUBSTITUTED ISOXAZOLINE DERIVATIVES” (BASF SE, priority 2022, dated 2023).

What was measured:
Type in all cases: in vivo
Heliothis virescens = assay: Tobacco budworm (Heliothis virescens) control, insect diet in 96-well microtiter plates
Protocol: (§1) If not otherwise specified, the test solutions were prepared as follows: The active compound was dissolved at the desired concentration in a mixture of 1:1 (vol:vol) distilled water:acetone. The test solution was prepared at the day of use.
(§2) Test solutions were prepared in general at a concentration of 2500ppm (wt/vol).
B.3. Tobacco budworm (Heliothis virescens)
For evaluating control of Tobacco Budworm, the test unit consisted of 96-well-microtiter plates containing an insect diet and 15-25 H. virescens eggs. The compounds were formulated using a solution containing 75% v/v water and 25% v/v DMSO. Different concentrations of formulated compounds were sprayed onto the insect diet at 10µl, using a custom-built micro atomizer, at two replications. After application, microtiter plates were incubated at about 28 ± 1°C and about 80 ± 5 % relative humidity for 5 days. Egg and larval mortality was then visually assessed.

Dichromothrips corbetti = assay: Orchid thrips (Dichromothrips corbetti), floral-immersion technique
Protocol: B.6. Orchid thrips (Dichromothrips corbetti)
Dichromothrips corbetti adults used for bioassay were obtained from a colony maintained continuously under laboratory conditions. For testing purposes, the test compound was diluted in a 1:1 mixture of acetone:water (vol:vol), plus Kinetic at a rate of 0.01% v/v.
Thrips potency of each compound was evaluated by using a floral-immersion technique. Each orchid petal was dipped into treatment solution and allowed to dry in Petri dishes. Treated petals were placed into individual re-sealable plastic along with about 20 adult thrips. All test arenas were held under dark condition and a temperature of about 28°C for duration of the assay. The percent mortality was recorded 72 hours after treatment.

Plutella xylostella = assay: Diamond back moth (Plutella xylostella), cabbage leaf disc dip test
Protocol: B.5. Diamond back moth (Plutella xylostella)
The active compound was dissolved at the desired concentration in a mixture of 1:1 (vol:vol) distilled water: acetone. Surfactant (Kinetic) was added at a rate of 0.01% (vol/vol). The test solution was prepared at the day of use. Cabbage leaf discs (60mm in diameter) were dipped in test solution and air-dried. Treated leaves were placed in petri dishes lined with moistened filter paper and inoculated with ten 3rd instar larvae. Mortality was recorded 72 hours after treatment. Feeding damages were also recorded using a scale of 0-100%.

Myzus persicae = assay: Green peach aphid (Myzus persicae), mixed life stages, systemic test via artificial diet under membrane
Protocol: as §1, §2
B.2. Green peach aphid (Myzus persicae) (mixed life stages)
For evaluating control of Green Peach Aphid through systemic means the test unit consisted of 96-well-microtiter plates containing liquid artificial diet under an artificial membrane. The compounds were formulated using a solution containing 75% v/v water and 25% v/v DMSO. Different concentrations of formulated compounds were pipetted into the aphid diet, using a custom-built pipette, at two replications. After application, 5 - 8 adult aphids were placed on the artificial membrane inside the microtiter plate wells. The aphids were then allowed to suck on the treated aphid diet and incubated at about 23 ± 1°C and about 50 ± 5 % relative humidity for 3 days. Aphid mortality and fecundity was then visually assessed.

Anthonomus grandis = assay: Boll weevil (Anthonomus grandis) control, insect diet in 96-well microtiter plates
Protocol: as §1, §2
B.1. Boll weevil (Anthonomus grandis)
For evaluating control of boll weevil, the test unit consisted of 96-well-microtiter plates containing an insect diet and 5-10 A. grandis eggs.
The compounds were formulated using a solution containing 75% v/v water and 25% v/v DMSO. Different concentrations of formulated compounds were sprayed onto the insect diet at 5µl, using a custom-built micro atomizer, at two replications.
After application, microtiter plates were incubated at about 25 ± 1°C and about 75 ± 5 % relative humidity for 5 days. Egg and larval mortality were then visually assessed.

Spodoptera eridania = assay: Southern armyworm (Spodoptera eridania), 2nd instar larvae, sprayed lima bean plants
Protocol: B.7. Southern armyworm (Spodoptera eridania), 2nd instar larvae
The active compounds were formulated by a Tecan liquid handler in 100% cyclohexanone as a 10'000 ppm solution supplied in tubes. The 10'000 ppm solution was serially diluted in 100% cyclohexanone to make interim solutions. These served as stock solutions for which final dilutions were made by the Tecan in 50% acetone:50% water (v/v) into 10 or 20ml glass vials. A nonionic surfactant (Kinetic®) was included in the solution at a volume of 0.01% (v/v). The vials were then inserted into an automated electrostatic sprayer equipped with an atomizing nozzle for application to plants/insects. Lima bean plants (variety Sieva) were grown 2 plants to a pot and selected for treatment at the 1st true leaf stage. Test solutions were sprayed onto the foliage by an automated electrostatic plant sprayer equipped with an atomizing spray nozzle. The plants were dried in the sprayer fume hood and then removed from the sprayer. Each pot was placed into perforated plastic bags with a zip closure. Ten to 11 armyworm larvae were placed into the bag and the bags zipped closed. Test plants were maintained in a growth room at about 25°C and about 20-40% relative humidity for 4 days, avoiding direct exposure to fluorescent light (14:10 light:dark photo-period) to prevent trapping of heat inside the bags. Mortality and reduced feeding were assessed 4 days after treatment, compared to untreated control plants.

Bemisia argentifolii = assay: Silverleaf whitefly (Bemisia argentifolii) adults, sprayed cotton plants
Protocol: B.8. Silverleaf whitefly (Bemisia argentifolii) (adults)
The active compounds were formulated by a Tecan liquid handler in 100% cyclohexanone as a 10,000-ppm solution supplied in tubes. The 10,000-ppm solution was serially diluted in 100% cyclohexanone to make interim solutions. These served as stock solutions for which final dilutions were made by the Tecan in 50% acetone:50% water (v/v) into 5 or 10ml glass vials. A nonionic surfactant (Kinetic®) was included in the solution at a volume of 0.01% (v/v). The vials were then inserted into an automated electrostatic sprayer equipped with an atomizing nozzle for application to plants/insects. Cotton plants at the cotyledon stage (one plant per pot) were sprayed by an automated electrostatic plant sprayer equipped with an atomizing spray nozzle. The plants were dried in the sprayer fume hood and then removed from the sprayer. Each pot was placed into a plastic cup and about 10 to 12 whitefly adults (approximately 3-5 days old) were introduced. The insects were collected using an aspirator and a nontoxic Tygon® tubing connected to a barrier pipette tip. The tip, containing the collected insects, was then gently inserted into the soil containing the treated plant, allowing insects to crawl out of the tip to reach the foliage for feeding. Cups were covered with a reusable screened lid. Test plants were maintained in a growth room at about 25°C and about 20-40% relative humidity for 3 days, avoiding direct exposure to fluorescent light (14:10 light:dark photoperiod) to prevent trapping of heat inside the cup. Mortality was assessed 3 days after treatment, compared to untreated control plants.

Aedes aegypti = assay: whole plant or invertebrate; settings: larval mortality visually assessed after 2 days
Protocol: as §1, §2
B.4. Yellow fever mosquito (Aedes aegypti)
For evaluating control of Yellow Fever Mosquito, the test unit consisted of 96-well-microtiter plates containing 200µl of tap water per well and 5-15 freshly hatched A. aegypti larvae. The active compounds were formulated using a solution containing 75% (v/v) water and 25% (v/v) DMSO. Different concentrations of formulated compounds or mixtures were sprayed onto the insect diet at 2.5µl, using a custom-built micro atomizer, at two replications.
After application, microtiter plates were incubated at 28 ± 1°C, 80 ± 5 % RH for 2 days. Larval mortality was then visually assessed.

[1] = 2500ppm, egg and larval mortality visually assessed after 5 days

Row | SMILES | mortality at 2500 ppm (Heliothis virescens; Heliothis virescens, 120 h, read-out: mortality in comparison with untreated controls) [%] | mortality at 300 ppm (Dichromothrips corbetti; Dichromothrips corbetti, 72 h, read-out: mortality in comparison with untreated controls) [%] | mortality at 300 ppm (Plutella xylostella; Plutella xylostella, foliar, 72 h, read-out: mortality in comparison with untreated controls) [%] | mortality at 2500 ppm (Myzus persicae; Myzus persicae, 72 h, read-out: mortality in comparison with untreated controls) [%] | mortality at 2500 ppm (Anthonomus grandis; Anthonomus grandis, 120 h, read-out: mortality in comparison with untreated controls) [%] | mortality at 300 ppm (Spodoptera eridania; Spodoptera eridania, 96 h, read-out: mortality in comparison with untreated controls) [%] | mortality at 300 ppm (Bemisia argentifolii; Bemisia argentifolii, 72 h, read-out: mortality in comparison with untreated controls) [%] | mortality at 2500 ppm (Aedes aegypti; Aedes aegypti, 48 h, read-out: mortality in comparison with untreated controls) [%] | mortality in comparison with untreated controls (Heliothis virescens; [1]) | mortality in comparison with untreated controls (Dichromothrips corbetti; 300ppm, adult thrips, mortality recorded 72 hours after treatment) | mortality in comparison with untreated controls (Plutella xylostella; 300ppm, 3rd instar larvae, mortality recorded 72 hours after treatment) | mortality in comparison with untreated controls (Myzus persicae; 2500ppm, aphid mortality visually assessed after 3 days) | mortality in comparison with untreated controls (Anthonomus grandis; [1]) | mortality in comparison with untreated controls (Spodoptera eridania; 300ppm, 2nd instar larvae, assessed 4 days after treatment) | mortality in comparison with untreated controls (Bemisia argentifolii; 300 ppm, adults, assessed 3 days after treatment) | mortality in comparison with untreated controls (Aedes aegypti; 2500ppm)
1 | Fc1c(Cl)cc(C2(C(F)(F)F)CC(Nc3ccc(Cl)c(-n4cc(C(F)(F)F)cn4)c3)=NO2)cc1Cl (stereo not shown) [I-14, N-[4-chloro-3-[4-(trifluoromethyl)pyrazol-1-yl]phenyl]-5-(3,5-dichloro-4-fluoro-phenyl)-5-(trifluoromethyl)-4H-isoxazol-3-amine] | ≥ 75 | ≥ 75 | ≥ 75 | ≥ 75 | ≥ 75 | ≥ 75 | ≥ 75 | ≥ 75 |  |  |  |  |  |  |  | 
2 | COCN(C1=NOC(c2cc(Cl)c(F)c(Cl)c2)(C(F)(F)F)C1)c1ccc(Cl)c(-n2cncn2)c1 (stereo not shown) [I-21] |  |  |  |  |  |  |  |  | at least 75% | at least 75% | at least 75% | at least 75% | at least 75% | at least 75% | at least 75% | at least 75%
